Source: patent US8809010B2, “Method for prophylactic treatment of alzheimer's disease using inhibitors of glutaminyl cyclase and glutamate cyclases” (Probiodrug AG, priority 2003, dated 2014)
Where two headings read alike, the source gives them in different places. Bridge positions count the residues as written; N and C are the ends. Ends that are not written are not given here. Peptide text beside a SMILES is read from it. Gln(NMe) = glutamine with N-methylated side-chain amide

Key:
[1] = molecular target: T1, human QC (Homo sapiens, UniProt Q16769); assay: Qualitative substrate conversion (MALDI-TOF / fluorometric); format: biochemical; parameters: key to substrate conversion, determined qualitatively: *: determined qualitatively by MALDI-TOF experiments; settings: for substrate conversion, determined qualitatively: Human QC, MALDI-TOF
T1 construct: The cDNA of the mature QC starting with codon 38 was fused in frame with the plasmid encoded 6× histidine tag; 6xHis; made in house; host or cells: Pichia pastoris X33 (pPICZαB, secreted); also E. coli M15 (pQE-31)
T1 sequence (Q16769 29-361): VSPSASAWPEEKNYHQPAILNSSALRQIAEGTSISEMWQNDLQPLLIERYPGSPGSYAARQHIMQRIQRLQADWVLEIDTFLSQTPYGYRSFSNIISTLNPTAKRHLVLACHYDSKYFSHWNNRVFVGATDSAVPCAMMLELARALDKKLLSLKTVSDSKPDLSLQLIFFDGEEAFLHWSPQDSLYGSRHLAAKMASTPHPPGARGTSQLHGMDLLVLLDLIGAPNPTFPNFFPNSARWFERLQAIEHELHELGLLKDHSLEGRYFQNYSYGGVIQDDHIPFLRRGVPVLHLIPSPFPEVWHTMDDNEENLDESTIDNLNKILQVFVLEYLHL
Description: Matrix-assisted laser desorption/ionization mass spectrometry was carried out using the Hewlett-Packard G2025 LD-TOF System with a linear time of flight analyzer. […] Samples (5 μl) were mixed with equal volumes of the matrix solution. For matrix solution we used DHAP/DAHC, prepared by solving 30 mg 2′,6′-dihydroxyacetophenone (Aldrich) and 44 mg diammonium hydrogen citrate (Fluka) in 1 ml acetonitrile/0.1% TFA in water (1/1, v/v). A small volume (≈1 μl) of the matrix-analyte-mixture was transferred to a probe tip and immediately evaporated in a vacuum chamber (Hewlett-Packard G2024A sample prep accessory) to ensure rapid and homogeneous sample crystallization.
In order to further investigate the specificity and selectivity of the QCs, peptides were synthesized comprising either a modified N-terminal glutaminyl residue or a modified amino acid in the second position. […] Due to the cyclization of the glutaminyl residue or its analog, respectively, a mass difference of the substrate and the product of catalysis is detected. In cases of ammonia liberation of one mole per mole of substrate, the conversion was also analyzed quantitatively using the spectrophotometric assay.

[2] = molecular target: T1, human QC; assay: QC inhibitor assay (fluorometric, H-Gln-AMC / H-Gln-βNA, pyroglutamyl aminopeptidase coupled); format: biochemical
[3] = molecular target: T1, human QC; assay: Continuous spectrophotometric QC assay (glutamate dehydrogenase coupled), substrate kinetics; format: biochemical; settings: for Ki* (mM): for substrate inhibition;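 on all read-outs here: initial rates read on a microplate reader at 30 °C, with enzyme activity quantified against an ammonia calibration curve under the same assay conditions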
Description: The initial velocities were evaluated and the enzymatic activity was determined from a standard curve of ammonia under assay conditions. All samples were measured at 30° C., using either the [sequence]luor Plus or the Sunrise (both from TECAN) reader for microplates. Kinetic data was evaluated using GraFit software.

[4] = molecular target: mammalian QC (Bos taurus, UniProt Q28120); settings: cited from earlier work
mammalian QC, sequence (Q28120 29-361): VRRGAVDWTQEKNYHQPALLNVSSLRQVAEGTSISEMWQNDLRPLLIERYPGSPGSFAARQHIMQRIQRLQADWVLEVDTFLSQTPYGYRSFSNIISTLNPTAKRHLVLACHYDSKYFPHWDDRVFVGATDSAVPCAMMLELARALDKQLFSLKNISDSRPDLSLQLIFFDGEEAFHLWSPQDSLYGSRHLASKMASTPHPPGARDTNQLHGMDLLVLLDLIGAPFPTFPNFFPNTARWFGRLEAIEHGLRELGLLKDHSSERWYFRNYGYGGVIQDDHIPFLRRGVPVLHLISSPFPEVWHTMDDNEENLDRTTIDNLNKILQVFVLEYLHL

[5] = molecular target: T1, human QC; assay: Long-term Glu1-cyclization of Aβ-derived peptides by recombinant human QC, MALDI-TOF; format: biochemical
Description: For long-term testing of Glu^1-cyclization, Aβ-derived peptides were incubated in 100 μl 0.1 M sodium acetate buffer, pH 5.2 or 0.1 M Bis-Tris buffer, pH 6.5 at 30° C. Peptides were applied in 0.5 mM [Aβ3-11a] or 0.15 mM [Aβ3-21a] concentrations, and 0.2 U QC was added all 24 hours. In case of Aβ3-21a, the assays contained 1% DMSO. At different times, samples were removed from the assay tube, peptides extracted using ZipTips (Millipore) according to the manufacturer's recommendations, mixed with matrix solution (1:1 v/v) and subsequently the mass spectra recorded. Negative controls did either contain no QC or heat deactivated enzyme.
The QC-catalyzed formation of [pGlu^3]Aβ3-11a and [pGlu^3]Aβ3-21a was investigated at pH 5.2 and 6.5, respectively. If the QC-inhibitor benzimidazole was added to the solution before starting the assay by addition of QC, substrate conversion resulting in [pGlu^3]Aβ3-11a or [pGlu^3]Aβ3-21a was suppressed (FIGS. 15E and F). If QC was boiled before addition, formation of the pGlu-peptides was negligible (FIGS. 15A and B).

[6] = molecular target: T1, human QC; settings: cited from earlier work
[7] = recombinant human QC, buffer containing 1% DMSO
[8] = Human QC, 0.05M Tris-HCl, pH 8.0
[9] = Human QC, 0.05M Tris-HCl, pH 8.0, 0.5 M KCl
[10] = recombinant human QC, absence of DMSO

[Gln^5]-substance P (5-11): QC substrate (QQFFGLM; ends and bridges not checked)
substrate conversion, determined qualitatively [1]: *

O=C(c1ccccc1)n1ccnc1 [1-benzoylimidazole]
inhibition of human QC [2]: loss of inhibitory quality

NC(=O)CC[C@H](N)C(=O)O [H-Gln-OH]
KM (μM) ([3]; Human QC): n.r.
kcat (s^−1) ([3]; Human QC): n.r.
conversion by human QC [1]: no reactivity

H-QAASAA-NH2 [H-Gln-Ala-Ala-Ser-Ala-Ala-NH2]
kcat ([3]; Human QC): 55.3 ± 1.6 s⁻¹

reduced 6-methylpterin
inhibition of mammalian QC [4]: Inhibition

c1ccc2[nH]cnc2c1 [benzimidazole]
formation of [pGlu^3]Aβ3-11a or [pGlu^3]Aβ3-21a in presence of inhibitor ([5]; 5 mM inhibitor, pH 5.2 / 6.5): suppressed

NC(=O)CC[C@H](N)C(=O)N[C@@H](CCC(=O)O)C(=O)N1CCC[C@H]1C(N)=O [[Gln^1]-FPP] (H-Gln-Glu-Pro-NH2)
kcat ([3]; Human QC): 69.6 ± 0.3 s⁻¹

CC(C)C[C@H](NC(=O)[C@H](CCCNC(=N)N)NC(=O)[C@H](CCCCNC(=O)[C@@H](N)CCC(N)=O)NC(=O)[C@@H](N)CCC(N)=O)C(=O)N[C@@H](C)C(N)=O [H-Gln-Lys(Gln)-Arg-Leu-Ala-NH2] (H-QK(Gln)RLA-NH2)
conversion by human QC [1]: converted

EFRHDSGYE-NH2 [Aβ3-11a]
glutamate-containing peptide as QC-substrate ([5]; pH 5.2 and 6.5): can also serve as QC-substrates

CCOc1ccc(NC(=S)NCCCn2ccnc2)cc1 [Example 27, 1-(3-(1H-imidazol-1-yl)propyl)-3-(4-ethoxyphenyl)thiourea]
Ki [2]: 890 nM

CC(C)(C)OC(=O)C(N)CCC(N)=O (stereo not drawn) [H-Gln-OtBu]
kcat ([3]; Human QC): 6.7 ± 0.2 s⁻¹
Ki* (mM) ([3]; Human QC): n.i.

[Gln^3]-glucagon (3-29): QC substrate
Km [3, 7]: 19 ± 1 µM
kcat [3, 7]: 10.0 ± 0.2 s⁻¹
substrate conversion, determined qualitatively [1]: *

C=Cn1ccnc1 [1-vinylimidazole]
inhibition of human QC [2]: improved binding to the active site

C[C@H](NC(=O)[C@@H](N)CCC(N)=O)C(N)=O [H-Gln-Ala-NH2] (H-Gln-Ala-NH2)
kcat ([3]; Human QC): 40.1 ± 0.9 s⁻¹

COc1ccc(NC(=S)NCCCn2ccnc2)cc1 [Example 11, 1-(3-(1H-imidazol-1-yl)propyl)-3-(4-methoxyphenyl)thiourea]
Ki [2]: 700 nM

Cn1cncc1CCN [3-methyl-4-histamine]
inhibition of human QC [2]: considerable improvement of efficacy

NC(=O)CC[C@H](N)C(=O)N[C@@H](CCC(=O)O)C(=O)O [H-Gln-Glu-OH] (H-Gln-Glu-OH)
kcat ([3]; Human QC): 24.7 ± 0.2 s⁻¹
Ki (mM) [3, 8]: n.i.
kcat [3, 8]: 21.4 ± 0.3 s⁻¹
Ki (mM) [3, 9]: n.i.
kcat [3, 9]: 18.9 ± 0.5 s⁻¹
Ki* (mM) ([3]; Human QC): n.i.

C[C@H](NC(=O)[C@@H](N)CCC(N)=O)C(=O)O [H-Gln-Ala-OH] (H-Gln-Ala-OH)
kcat ([3]; Human QC): 57.2 ± 0.4 s⁻¹
Ki (mM) [3, 8]: n.i.
kcat [3, 8]: 54.4 ± 0.5 s⁻¹
Ki (mM) [3, 9]: n.i.
kcat [3, 9]: 47.6 ± 0.6 s⁻¹
Ki* (mM) ([3]; Human QC): n.i.

Cc1nc2ccccc2[nH]1 [2-methyl-benzimidazole]
inhibition of human QC [2]: the inhibition constant drops about one order of magnitude

N#CN=C(NCCCn1ccnc1)NCc1ccc2c(c1)OCO2 [Example 81]
Ki [2]: 1530 nM

NCCCn1ccnc1 [1-aminopropyl-imidazole]
inhibition of human QC [2]: one of the less effective compounds of this group

QFRHDSGYE-NH2 [[Gln^3]Aβ3-11a]
Km [3, 10]: 87 ± 3 µM
kcat (s^−1) [3, 10]: 55 ± 1^# s^−1
Km [3, 7]: 155 ± 4 µM
kcat [3, 7]: 41.4 ± 0.4 s⁻¹

phenylimidazole
inhibition of human QC [2]: inactive under the experimental conditions

COC(=O)CC[C@H](N)C(=O)Nc1ccc2ccccc2c1 [H-Glu(OMe)-βNA]
conversion by human QC [1]: None of these compounds were converted

c1c[nH]cn1 [imidazole]
inhibition of human QC [6]: inhibited

NCCc1c[nH]cn1 [L-Histamine]
inhibition of human QC [2]: about one order of magnitude smaller compared to its acetylated counterpart

c1ccc(Cn2ccnc2)cc1 [1-benzylimidazole]
inhibition of human QC [2]: one of the most effective QC inhibitors

S=C(NCCCn1ccnc1)NCc1ccc2c(c1)OCO2 [Example 47]
Ki [2]: 6100 nM

C[C@H](NC(=O)[C@H](C)NC(=O)[C@@H](N)CCC(N)=O)C(N)=O [H-Gln-Ala-Ala-NH2] (H-Gln-Ala-Ala-NH2)
kcat ([3]; Human QC): 76.3 ± 0.7 s⁻¹

Cn1ccnc1 [1-methylimidazole]
inhibition of human QC [2]: improved binding to the active site

O=C(O)CN(CCN(CC(=O)O)CC(=O)O)CC(=O)O [EDTA]
inhibition of mammalian QC [4]: did not inhibit

H-EFKRLA-NH2 [H-Glu-Phe-Lys-Arg-Leu-Ala-NH2]
inhibition of human QC [2]: not inhibited

H-Gln-cyclo(Nε-Lys-Arg-Pro-Ala-Gly-Phe) (H-QKRPAGF; lactam 2-C; SMILES C[C@@H]1NC(=O)[C@@H]2CCCN2C(=O)[C@H](CCCNC(=N)N)NC(=O)[C@@H](NC(=O)[C@@H](N)CCC(N)=O)CCCCNC(=O)[C@H](Cc2ccccc2)NC(=O)CNC1=O)
kcat ([3]; Human QC): 22.8 ± 0.6 s⁻¹

NC(=O)CC[C@H](N)C(N)=O [H-Gln-NH2]
kcat ([3]; Human QC): 12.8 ± 0.5 s⁻¹
Ki (mM) [3, 8]: n.i.
kcat [3, 8]: 12.8 ± 0.3 s⁻¹
Ki (mM) [3, 9]: n.i.
kcat [3, 9]: 12.2 ± 0.1 s⁻¹
Ki* (mM) ([3]; Human QC): n.i.
conversion by human QC [1]: converted glutaminamide to products readily

CC(C)[C@H](NC(=O)[C@@H](N)CCC(N)=O)C(=O)O [H-Gln-Val-OH] (H-Gln-Val-OH)
kcat ([3]; Human QC): 17.2 ± 0.1 s⁻¹
Ki* (mM) ([3]; Human QC): n.i.

Cc1cc(=O)oc2cc(NC(=O)[C@@H](N)CCC(N)=O)ccc12 [H-Gln-AMC]
kcat ([3]; Human QC): 5.3 ± 0.1 s⁻¹

NC(=O)CC[C@H](N)C(=O)N[C@@H](Cc1ccc(O)cc1)C(=O)O [H-Gln-Tyr-OH] (H-Gln-Tyr-OH)
kcat ([3]; Human QC): 94 ± 1 s⁻¹
Ki* (mM) ([3]; Human QC): n.i.

H-Gln(NMe)-Phe-Lys-Ala-Glu-NH2 ({Gln(NMe)}-FKAE-NH2)
inhibition of human QC [2]: not detected
conversion by human QC [1]: No substrate conversion was observed

QFRHDSGYEVHHQKLVFFA-NH2 [[Gln^3]Aβ3-21a]
kcat [3, 7]: 62 ± 3 s⁻¹

H-QAAAA-NH2 [H-Gln-Ala-Ala-Ala-Ala-NH2]
kcat ([3]; Human QC): 60.5 ± 0.7 s⁻¹

O=C(NCCCn1ccnc1)Nc1cc(F)cc2c1OCOC2 [Example 97]
Res. Act. (%) ([2]; residual QC activity with inhibitor): 19.0%

NC(=O)CC[C@H](NC(=O)[C@@H](N)CCC(N)=O)C(=O)O [H-Gln-Gln-OH] (H-Gln-Gln-OH)
kcat ([3]; Human QC): 20.7 ± 0.2 s⁻¹
Ki* (mM) ([3]; Human QC): n.i.

NC(=O)CC[C@H](N)C(=O)N[C@@H](Cc1c[nH]cn1)C(=O)N1CCC[C@H]1C(N)=O [[Gln^1]-TRH] (H-Gln-His-Pro-NH2)
kcat ([3]; Human QC): 82.8 ± 1.2 s⁻¹

COC(=O)CC[C@H](N)C(=O)N[C@@H](Cc1ccccc1)C(=O)N[C@@H](CCCCN)C(=O)N[C@@H](CCCNC(=N)N)C(=O)N[C@@H](CC(C)C)C(=O)N[C@@H](C)C(N)=O [H-Glu(OMe)-Phe-Lys-Arg-Leu-Ala-NH2] (H-E(OMe)FKRLA-NH2)
inhibition of human QC [2]: not inhibited
